# What was measured:
# Experiment in all cases: relative viability (nuclei count vs DMSO), 5 days (fraction); higher = more cells survive
# Adavosertib + Trametinib = compound: C=CCn1c(=O)c2cnc(Nc3ccc(N4CCN(C)CC4)cc3)nc2n1-c1cccc(C(C)(C)O)n1 [Adavosertib] + CC(=O)Nc1cccc(-n2c(=O)n(C3CC3)c(=O)c3c(Nc4ccc(I)cc4F)n(C)c(=O)c(C)c32)c1 [Trametinib] (partner 0.02 µM)
# Summary of the method: (§1)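 Relative viability was taken as the ratio of nuclei in treated wells to nuclei in vehicle wells. Lung cancer cell lines in 1536-well plates received compounds by pin tool one day after seeding, either one drug alone or a fixed anchor-drug dose plus five library-drug doses (not always all listed) in √10 steps. Nuclei were counted on 4× images after 5 days of treatment, and values are medians of duplicate plates.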
# Adavosertib + Phenformin = compound: C=CCn1c(=O)c2cnc(Nc3ccc(N4CCN(C)CC4)cc3)nc2n1-c1cccc(C(C)(C)O)n1 [Adavosertib] + N=C(N)NC(=N)NCCc1ccccc1 [Phenformin] (partner 250 µM)
# Summary of the method: as §1
# Adavosertib + Decitabine = compound: C=CCn1c(=O)c2cnc(Nc3ccc(N4CCN(C)CC4)cc3)nc2n1-c1cccc(C(C)(C)O)n1 [Adavosertib] + Nc1ncn([C@H]2C[C@H](O)[C@@H](CO)O2)c(=O)n1 [Decitabine] (partner 2 µM)
# Summary of the method: as §1
# Nelarabine + Navitoclax = compound: COc1nc(N)nc2c1ncn2[C@@H]1O[C@H](CO)[C@@H](O)[C@@H]1O [Nelarabine] + CC1(C)CCC(c2ccc(Cl)cc2)=C(CN2CCN(c3ccc(C(=O)NS(=O)(=O)c4ccc(N[C@H](CCN5CCOCC5)CSc5ccccc5)c(S(=O)(=O)C(F)(F)F)c4)cc3)CC2)C1 [Navitoclax] (partner 0.5 µM)
# Summary of the method: as §1
Cell Line,relative viability (Adavosertib + Trametinib; first compound 0.01 µM),relative viability (Adavosertib + Trametinib; first compound 0.03162 µM),relative viability (Adavosertib + Trametinib; first compound 0.1 µM),relative viability (Adavosertib + Trametinib; first compound 0.3162 µM),relative viability (Adavosertib + Phenformin; first compound 0.01 µM),relative viability (Adavosertib + Phenformin; first compound 0.03162 µM),relative viability (Adavosertib + Phenformin; first compound 0.1 µM),relative viability (Adavosertib + Phenformin; first compound 0.3162 µM),relative viability (Adavosertib + Decitabine; first compound 0.01 µM),relative viability (Adavosertib + Decitabine; first compound 0.03162 µM),relative viability (Adavosertib + Decitabine; first compound 0.1 µM),relative viability (Adavosertib + Decitabine; first compound 0.3162 µM),relative viability (Nelarabine + Navitoclax; first compound 0.01 µM),relative viability (Nelarabine + Navitoclax; first compound 0.03162 µM),relative viability (Nelarabine + Navitoclax; first compound 0.1 µM),relative viability (Nelarabine + Navitoclax; first compound 0.3162 µM),relative viability (Nelarabine + Navitoclax; first compound 1 µM)
SK-LU-1,0.611,0.505,0.509,0.316,0.57,0.484,0.458,0.223,0.616,0.64,0.631,0.461,0.773,0.485,0.84,0.79,0.79
NCI-H1915,0.329,0.338,0.322,0.33,0.364,0.367,0.388,0.365,0.262,0.251,0.272,0.282,0.799,0.687,0.767,0.805,0.796
NCI-H1666,0.797,0.782,1.02,0.813,0.549,0.562,0.636,0.594,0.629,0.616,0.73,0.703,1.08,1.08,0.807,1.07,0.937
NCI-H1650,0.587,0.616,0.539,0.574,0.361,0.392,0.445,0.205,0.449,0.415,0.564,0.27,1.32,1.36,1.28,1.36,1.23
NCI-H441,0.432,0.509,0.373,0.423,0.876,0.78,1.09,0.765,0.29,0.266,0.264,0.289,1.13,0.707,0.912,0.5,0.49
LC-2-ad,0.865,0.908,0.914,1.04,0.565,0.635,0.621,0.597,0.696,0.733,0.87,0.889,0.619,0.384,0.519,0.434,0.452
NCI-H727,0.427,0.383,0.396,0.385,0.543,0.593,0.531,0.565,0.843,0.845,0.899,0.909,0.496,0.384,0.376,0.424,0.377
HCC-827,0.533,0.567,0.492,0.522,0.391,0.434,0.46,0.387,0.15,0.344,0.341,0.214,1.02,0.886,0.91,0.797,0.705
NCI-H2023,0.575,0.521,0.62,0.267,0.437,0.389,0.358,0.193,0.203,0.224,0.191,0.141,1.26,1.17,1.03,1.07,1.01

# — the supplement of paper PMC10307832
